Measured values reported in patent US20260256799A1, “INHIBITORS FOR TREATING SOLID TUMOURS” (UNIVERSITY OF SOUTHAMPTON, priority 2023, published 2026).

Tests used:
[1] = molecular target: T1, NOX4 (Homo sapiens, UniProt Q9NPH5); details: cited from earlier work
T1 sequence (Q9NPH5 1-578): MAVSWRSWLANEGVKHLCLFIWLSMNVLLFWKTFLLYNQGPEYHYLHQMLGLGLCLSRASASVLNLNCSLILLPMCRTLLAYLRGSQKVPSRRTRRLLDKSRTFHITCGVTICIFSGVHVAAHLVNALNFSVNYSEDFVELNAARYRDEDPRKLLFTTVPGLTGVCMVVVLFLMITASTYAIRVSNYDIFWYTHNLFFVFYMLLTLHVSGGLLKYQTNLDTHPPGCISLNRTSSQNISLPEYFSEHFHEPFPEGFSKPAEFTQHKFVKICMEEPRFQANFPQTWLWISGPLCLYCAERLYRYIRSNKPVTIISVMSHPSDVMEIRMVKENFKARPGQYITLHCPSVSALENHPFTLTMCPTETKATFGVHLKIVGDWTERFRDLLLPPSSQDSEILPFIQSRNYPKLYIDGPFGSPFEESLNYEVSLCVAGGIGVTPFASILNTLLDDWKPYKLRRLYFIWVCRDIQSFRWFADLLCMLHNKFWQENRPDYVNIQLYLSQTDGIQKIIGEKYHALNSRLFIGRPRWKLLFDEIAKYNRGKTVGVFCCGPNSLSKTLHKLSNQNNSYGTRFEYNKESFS
T1 sequence (P13498 1-195 partner): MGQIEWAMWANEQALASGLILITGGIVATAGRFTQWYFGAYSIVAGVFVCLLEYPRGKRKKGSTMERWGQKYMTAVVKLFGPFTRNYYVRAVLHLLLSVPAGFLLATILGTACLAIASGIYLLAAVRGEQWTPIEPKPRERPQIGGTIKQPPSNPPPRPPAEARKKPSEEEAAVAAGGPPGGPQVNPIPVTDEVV

[2] = test system: ATM; assay: ATM activation and dimerization in CAF nuclear extracts (Western blotting); type: cell-based, human; details: GKT137831 daily for 72 hours
Protocol: (§1) Human NSCLC cell line H441, HNSCC SCC25, murine cancer cell line TC-1 (lung), MC38 (colon) and human fetal foreskin fibroblasts HFFF2 were purchased from European Collection of Cell Cultures (Public Health England) or ATCC; HNSCC 5PT [32] were provided by l. Mackenzie (Queen Mary University of London, UK). HEK-293T cells and IMR90 lung fibroblasts were provided by Jesus Gil (Imperial College, London, UK). SCC25 were grown in Ham's F12:DMEM (1:1 ratio) medium with 10% FBS (Calbiochem) and 292 μg/ml L-Glutamine. 5PT were cultured in keratinocyte growth medium. HEK-293T, H441, MC38, HFFF2, IMR90 and primary fibroblasts were grown in DMEM supplemented with 10% FBS and 292 μg/ml L-Glutamine. Primary fibroblasts were isolated as previously used at early passage (p1-10). […]
(§2) Cells were lysed in ice-cold RIPA buffer [1% NP40, 150 mM NaCl, 25 mM Tris-HCl pH 7.5, 0.1% SDS, 1% Na-Deoxycolate, 1 mM EGTA, 1 mM EDTA, 1 mM Na-orthovanadate, 10 mM Na-fluoride, 2.5 mM Na-pyrophosphate, 1 mM p glycerophosphate+freshly added 1 mM PMSF, 20 mM N-Ethylmaleimide (NEM), 10 ng/ml Microcystin-LR, 0.12 μM Okadaic acid and phosphatase and protease inhibitor cocktails; all from Sigma]. Protein extracts were then centrifuged and supernatants quantified using Dc-Bio-Rad protein assay kit (Bio-Rad laboratories) as previously. […]

[3] = test system: HFFF2; assay: ROS assay (DCFH-DA fluorescence); type: cell-based, human; details: GKT137831 40 μM, HFFF2 treated 48 hours with TGF-β1
Protocol: (§3) HFFF2s were plated in 24-well plates (1×10^3 or 5×10^3 cells/well) and treated with TGF-β1 the following day (and then every 3 days). Senescence was quantified at day 5 and 12 from TGF-β1 treatment determining the percentage of SA-β-Gal-positive cells (Sigma) of the total number of cells counterstained with Dapi (Sigma) as previously described. At least 200 cells/well in at least three independent experiments were counted per sample using a CKX41 Olympus fluorescent microscope. Cells were less than 50% confluent at the end of the experiment to avoid SA-β-Gal-false positive cells due to cell contact. ROS assay was performed as previously.

[4] = test system: ATM; assay: TGF-β1-dependent ATM activation in fibroblasts (Western blotting); type: cell-based, human
Protocol: as §1, with “(p1-10). C57BL/6 murine normal lung and colon fibroblasts (MLF and MCF respectively) were grown at 3% oxygen. TC-1 were cultured in RPMI supplemented with 10% FBS and 292 μg/ml L-Glutamine. All cell cultures were routinely tested for mycoplasma contamination. All cells were cultured using standard cell culture plates/flasks (Corning). HFFF2 or IMR90 cells were transfected with 25 μM On-Target pool siRNA (Thermo Scientific/Dharmacon) using Oligofectamine reagent (Life Technologies) as described. Stable knockdown was performed using retro/lentiviral mediated transduction of shRNA plasmids, as previously described followed by cell selection using 1 μg/ml puromycin for 5-7 days. NOX4-inducible HEK-293 cells (kindly provided by Vincent Jaquet) were treated with 1 μg/ml doxycycline.” for “(p1-10).”
as §2

[5] = test system: HFFF2 fibroblasts; assay: TGF-β1-induced myofibroblast differentiation of fibroblasts (Western blotting, immunofluorescence, Q-RT-PCR, collagen gel contraction); type: cell-based, human
Protocol: (§4) Human NSCLC cell line H441, HNSCC SCC25, murine cancer cell line TC-1 (lung), MC38 (colon) and human fetal foreskin fibroblasts HFFF2 were purchased from European Collection of Cell Cultures (Public Health England) or ATCC; HNSCC 5PT [32] were provided by l. Mackenzie (Queen Mary University of London, UK). HEK-293T cells and IMR90 lung fibroblasts were provided by Jesus Gil (Imperial College, London, UK). SCC25 were grown in Ham's F12:DMEM (1:1 ratio) medium with 10% FBS (Calbiochem) and 292 μg/ml L-Glutamine. 5PT were cultured in keratinocyte growth medium. HEK-293T, H441, MC38, HFFF2, IMR90 and primary fibroblasts were grown in DMEM supplemented with 10% FBS and 292 μg/ml L-Glutamine. Primary fibroblasts were isolated as previously used at early passage (p1-10). C57BL/6 murine normal lung and colon fibroblasts (MLF and MCF respectively) were grown at 3% oxygen. TC-1 were cultured in RPMI supplemented with 10% FBS and 292 μg/ml L-Glutamine. All cell cultures were routinely tested for mycoplasma contamination. All cells were cultured using standard cell culture plates/flasks (Corning). HFFF2 or IMR90 cells were transfected with 25 μM On-Target pool siRNA (Thermo Scientific/Dharmacon) using Oligofectamine reagent (Life Technologies) as described. Stable knockdown was performed using retro/lentiviral mediated transduction of shRNA plasmids, as previously described followed by cell selection using 1 μg/ml puromycin for 5-7 days. NOX4-inducible HEK-293 cells (kindly provided by Vincent Jaquet) were treated with 1 μg/ml doxycycline. Wild type and mutant (C2991L) ATM over-expression was carried out transfecting HFFF2 with Viafect (Promega) according to manufacturer's instructions and selected for 10 days with 4 mg/ml G418. p-Retrosuper-shATM (ATM #1:912) and pCDNA3.1-Flag-mut-ATM (C2991L; pTP1625 clone) were kindly provided by Yosef Shiloh and Tanya Paull respectively. pLKO.1 murine shATM (TRCN0000012643) and pCDNA3.1-Flag-wt-ATM (31985) were purchased from Sigma and Addgene respectively. 2 ng/ml TGF-3 (TGF-β1; R&D Systems; for 3 days) was used to induce myofibroblast differentiation. 10 ng/ml IL-1pR (R&D Systems) for 72 hours was used to induce iCAF differentiation. […] All the inhibitors were resuspended in DMSO. To trigger DDR activation and/or cell stress HFFF2 were either irradiated with 2-100Gy using 350Kv X-Ray Irradiation System (Faxitron), or treated with 100 ng/ml Neocarzinostatin for 2 hours (NCS; Sigma), with 2-10 mM H2O2(Fisher Scientific) or with 5 μg/ml Cisplatin (Sandoz) for 30 minutes.
5×10^3 HFFF2 were plated on permanox chamber slides (Thermo Scientific) and treated as described in the figure legends. Immunostaining was performed as previously. DAPI was used as nuclear counterstain and coverslips were mounted using fluorescent mounting solution (Dako). Images were taken using an Olympus IX81 fluorescence microscope and Xcellence program. DNA Damage foci were quantified from at least 8 non-overlapping FoV with ~300 cells in total per condition. Kruskall-Wallis statistical test was used to indicate the presence of a different distribution per time points in each group of foci. For collagen 1A1 deposition, 5×10^3 HFFF2 or MLF were seeded into chamber slides and treated with TGF-β1±inhibitors for a week (treated day 1 & day 4). Decellularisation was performed using 0.25M NH4OH in 50 mM Tris at 37° C. for 30 minutes and slides fixed with ice-cold 100% methanol at −20° C. followed by a blocking step. The remainderwas performed as previously described. SMA and Collagen 1A1 quantification was performed using Fiji. High resolution imaging of mouse tumours was carried out using an Axioscan.Z1 scanner (Zeiss).

[6] = test system: H441, 5PT, SCC25 cells; assay: Transwell invasion assay towards fibroblast-conditioned media; type: cell-based, human
Protocol: CAF, HFFF2 or shCTR/shATM HFFF2 populations were treated with 13.3 μM KU55933+/−TGF-β1 for 7 days (treated day 1, day 4). Cells were washed twice with PBS and serum-free DMEM added for 72 hours. Fibroblast-conditioned medium (CM) was collected, centrifuged, filtered (0.2 μm), normalized according to cell number and used as a chemoattractant in the lower chamber of Transwell invasion assays as previously. Two-way Anova was used for statistical analysis.

[7] = test system: HNSCC and NSCLC CAF; assay: Established myoCAF phenotype of CAF cultured ex vivo; type: cell-based, human
Protocol: as §4
Cells were lysed in ice-cold RIPA buffer [1% NP40, 150 mM NaCl, 25 mM Tris-HCl pH 7.5, 0.1% SDS, 1% Na-Deoxycolate, 1 mM EGTA, 1 mM EDTA, 1 mM Na-orthovanadate, 10 mM Na-fluoride, 2.5 mM Na-pyrophosphate, 1 mM p glycerophosphate+freshly added 1 mM PMSF, 20 mM N-Ethylmaleimide (NEM), 10 ng/ml Microcystin-LR, 0.12 μM Okadaic acid and phosphatase and protease inhibitor cocktails; all from Sigma]. Protein extracts were then centrifuged and supernatants quantified using Dc-Bio-Rad protein assay kit (Bio-Rad laboratories) as previously. For nuclear-cytoplasmic protein extraction, the inventors used NE-PER Reagents according to manufacturer's instructions (Thermofisher). Equal amounts of protein were electrophoresed either in reducing (+Dithiothreitol, DTT) or in non-reducing conditions in 3-8% or 4-12% SDS-PAGE gels and electro blotted as previously.

[8] = test system: HFFF2; assay: IL-1-induced iCAF gene expression (Q-RT-PCR); type: cell-based, human; details: KU55933 + 10 ng/ml IL-1p 72 hours
Protocol: as §1, with “(p1-10). C57BL/6 murine normal lung and colon fibroblasts (MLF and MCF respectively) were grown at 3% oxygen. TC-1 were cultured in RPMI supplemented with 10% FBS and 292 μg/ml L-Glutamine. All cell cultures were routinely tested for mycoplasma contamination. All cells were cultured using standard cell culture plates/flasks (Corning).” for “(p1-10).”
For Quantitative Real-time PCR (Q-RT-PCR), RNA was extracted and retro-transcribed as described previously and Q-RT-PCR was performed as previously. The mRNA expression levels were analyzed using the AACt relative quantitation method. […]

[9] = test system: HFFF2; assay: Senescence assay (SA-β-Gal); type: cell-based, human; details: continuous TGF-β1 administration, at 12 days
Protocol: as §3

[10] = GKT137831 40 μM, HFFF2, TGF-β1 24 hours

Q: With CN(C)c1cccc(-c2c3c(=O)n(-c4ccccc4Cl)[nH]c3cc(=O)n2C)c1 [GKT137831] as the molecule, how does the myoCAF differentiation [1] read?
A: The myoCAF differentiation was “suppresses”.

Q: What about the myoCAF-mediated immunotherapy resistance [1] of the same molecule?
A: Its myoCAF-mediated immunotherapy resistance is “overcomes”.

Q: And the ATM dimerization ([2]; non-reducing conditions)?
A: Its ATM dimerization is “inhibited”.

Q: And the ATM activation ([2]; two HNSCC CAF and one NSCLC CAF)?
A: The ATM activation was “inhibited”.

Q: And the ROS production [3]?
A: Its ROS production is “suppressed”.

Q: And the “ATM downstream kinase activity” value [4, 10]?
A: Its value is “inhibited”.

Q: And the ATM phosphorylation [4, 10]?
A: Its ATM phosphorylation is “inhibited”.

Q: And the “DNA damage monitored by pH2AX protein expression” value ([4]; GKT137831, HFFF2, TGF-β1 48 hours)?
A: Its value is “decreased”.

Q: Which results are given for O=c1cc(-c2cccc3c2Sc2ccccc2S3)oc(N2CCOCC2)c1 [KU55933]?
A: expression of SMA ([5]; KU55933 13.3 μM + TGF-β1 72 hours, HFFF2 and primary colon, skin, oral fibroblasts): inhibiting; SMA-positive stress fiber formation ([5]; KU55933 13.3 μM + TGF-β1, 3 days, HFFF2): inhibiting; collagen1 deposition ([5]; KU55933 13.3 μM + TGF-β1, 7 days, HFFF2, MLF one week): inhibiting; contraction of collagen gels ([5]; KU55933 13.3 μM + TGF-β1, HFFF2 or normal primary oral fibroblasts): inhibiting; myofibroblast differentiation ([5]; KU55933 13.3 μM co-treated with TGF-β1): suppressed differentiation; TGF-β1 induction of myoCAF genes (COL11A1, ASPN, ELN) ([5]; KU55933 + TGF-β1 72 hours, HFFF2, Q-RT-PCR): suppressed; invasion-promoting effects of myofibroblasts generated through TGF-β1 treatment ([6]; 5PT or SCC25 cells towards conditioned media of HFFF2 treated with TGF-β1 +/− KU55933 7 days): suppressed; myoCAF-dependent cancer cell invasion ([6]; H441 or 5PT cells towards conditioned media of NSCLC / HNSCC CAF treated with KU55933 13.3 μM 7 days): inhibiting; CAF phenotype ([7]; KU55933 for 7 days): reverted CAF to a more quiescent phenotype; expression of myofibroblast markers (SMA, collagen I, fibronectin) ([7]; KU55933 for 7 days): downregulating; contractility ([7]; collagen gel contraction, ATM inhibition by KU55933 or shRNA-knockdown): suppressing; IL-1p induction of most iCAF genes (CCL2, LIF, IL6, CXCL1) [8]: significantly upregulated

Q: For “TGF-β1: cytokine (R&D Systems) used to induce myofibroblast differentiation”, which “% range SA-β-Gal-positive cells” value [9] is on record?
A: The value was 15.8-23.3%.
